Laboratory results published in US20140228349A1, “5,7-SUBSTITUTED-IMIDAZO[1,2-C]PYRIMIDINES” (Array BioPharma Inc., priority 2011, published 2014).

Experiments:
Format in all cases: biochemical
Human Tyk2 kinase domain = biological target: T1, Human Tyk2 kinase domain (Homo sapiens, UniProt P29597); experiment: Tyk2 Inhibition Assay (Omnia kinase fluorescence peptide substrate); conditions: averaged IC50 ranges; 10 μM (Km app) or 1 mM ATP, 2 nM Tyk2
T1 construct: comprising amino acids 886 to 1187; His10 (10 histidine residues) (C, cleaved yes); made in house
T1 sequence (P29597 886-1187): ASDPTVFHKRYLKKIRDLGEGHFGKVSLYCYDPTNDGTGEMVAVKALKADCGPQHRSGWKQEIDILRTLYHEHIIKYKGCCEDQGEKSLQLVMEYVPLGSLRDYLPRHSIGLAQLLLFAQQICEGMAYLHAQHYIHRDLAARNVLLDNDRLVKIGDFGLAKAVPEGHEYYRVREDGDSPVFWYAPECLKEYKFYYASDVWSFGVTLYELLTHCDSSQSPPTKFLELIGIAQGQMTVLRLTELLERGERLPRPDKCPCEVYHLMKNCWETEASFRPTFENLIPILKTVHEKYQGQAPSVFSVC
From the text: (§1) The assays described in Examples A, B, C and D for the determination of Tyk2, JAK1, JAK2 and JAK3 kinase activity, respectively, utilized the Omnia® Kinase fluorescence peptide substrate-based technology (Invitrogen). The specific components of the assay mixture are described in Examples A, B, C and D. In these assays, Mg^2+ is chelated upon phosphorylation of the Omnia peptide by the kinase to form a bridge between the chelation-enhanced fluorophore Sox and the phosphate, resulting in an increase in fluorescence emission at 485 nm when excited at […]. The reactions were therefore read at excitation 360 nm and emission was measured at 485 nm every 50 seconds for 45 minutes using a PerkinElmer EnVision Multilabel Plate Reader.
(§2) The final buffer conditions for Tyk2, JAK1, JAK2, and JAK3 assays were as follows: 25 mM HEPES, pH 7.4, 10 mM MgCl2, 0.01% Triton X-100 and 1 mM DTT.
(§3) Compounds were prepared at 50× the final concentration in DMSO by conducting 3-fold serial dilutions from a 500-μM intermediate dilution to give a 10-point dosing curve having a high dose of 10 μM. Two-μL aliquots of these were transferred to a fresh plate for a ten-fold intermediate dilution with assay buffer. Five-μL aliquots of the diluted compounds were then transferred to 20-μL of assay mixtures described in Examples A, B, C and D for a final concentration of DMSO of 2%. A standard or reference compound was typically included on each assay plate to validate that plate. For each plate, percent of control (POC) values were calculated for each well according to the following equation: […]
(§4) IC50's were estimated from the POC's using a standard 4-parameter logistic model:
(§5) The IC50 is defined as the concentration of inhibitor at which the POC equals 50 for the fitted curve.
Compounds of Formula I were screened for their ability to inhibit Tyk2 using the general enzyme inhibition assay method, in which the assay mixture contained 10 μM (Km app) or 1 mM ATP, 8 μM Omnia® Y12 peptide (Catalog #IVGN KPZ3121C; Invitrogen Corporation, Carlsbad, Calif.) and 2 nM Tyk2 in a total volume of 20 μL. Human Tyk2 kinase domain, comprising amino acids 886 to 1187 with 10 additional histidine residues (histidine tag) on the carboxy terminus, was expressed and purified from bacculovirus in-house at Array BioPharma Inc. (Boulder, Colo.). The histidine tag was cleaved after purification using standard conditions.

JAK1 = biological target: T2, JAK1 (Homo sapiens, UniProt P23458); experiment: JAK1 Inhibition Assay (Omnia kinase fluorescence peptide substrate); conditions: averaged IC50 ranges; 40 μM (Km app) or 1 mM ATP, 15 nM JAK1
T2 construct: purchased Invitrogen Corporation, Carlsbad, Calif; IVGN PV4775
T2 sequence (P23458 whole entry): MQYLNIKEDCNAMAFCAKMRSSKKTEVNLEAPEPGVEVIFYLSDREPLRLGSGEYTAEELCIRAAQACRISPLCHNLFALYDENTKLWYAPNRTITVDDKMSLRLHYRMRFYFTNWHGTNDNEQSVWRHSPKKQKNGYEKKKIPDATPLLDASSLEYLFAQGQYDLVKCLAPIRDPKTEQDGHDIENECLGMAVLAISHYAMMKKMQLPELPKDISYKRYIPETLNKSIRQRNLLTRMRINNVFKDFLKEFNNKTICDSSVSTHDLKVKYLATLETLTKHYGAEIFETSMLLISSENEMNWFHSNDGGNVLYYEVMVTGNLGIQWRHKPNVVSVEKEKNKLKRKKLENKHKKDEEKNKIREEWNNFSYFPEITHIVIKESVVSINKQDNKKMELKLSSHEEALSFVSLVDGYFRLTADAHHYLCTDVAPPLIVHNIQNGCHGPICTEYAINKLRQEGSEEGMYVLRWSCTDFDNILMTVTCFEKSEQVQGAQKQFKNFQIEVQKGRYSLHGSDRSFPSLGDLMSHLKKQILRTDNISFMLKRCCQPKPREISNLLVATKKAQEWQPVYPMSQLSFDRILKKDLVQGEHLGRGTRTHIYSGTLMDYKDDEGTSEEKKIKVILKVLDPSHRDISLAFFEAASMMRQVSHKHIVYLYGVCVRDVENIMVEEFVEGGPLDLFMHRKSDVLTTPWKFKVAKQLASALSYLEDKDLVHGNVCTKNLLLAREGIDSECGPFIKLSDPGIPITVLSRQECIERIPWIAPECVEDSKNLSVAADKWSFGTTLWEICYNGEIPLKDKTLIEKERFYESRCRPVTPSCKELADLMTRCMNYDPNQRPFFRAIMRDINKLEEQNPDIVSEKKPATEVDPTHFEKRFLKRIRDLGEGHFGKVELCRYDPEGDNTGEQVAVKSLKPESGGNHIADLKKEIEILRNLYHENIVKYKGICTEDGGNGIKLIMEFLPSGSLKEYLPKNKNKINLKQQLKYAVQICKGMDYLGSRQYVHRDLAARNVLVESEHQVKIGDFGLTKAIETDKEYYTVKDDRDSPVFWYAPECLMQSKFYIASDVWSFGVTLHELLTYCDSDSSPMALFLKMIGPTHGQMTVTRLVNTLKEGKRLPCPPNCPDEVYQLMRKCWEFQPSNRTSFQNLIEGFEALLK
From the text: as §1, §2, §3, §4, §5
Compounds of Formula I were screened for their ability to inhibit JAK1 using the general enzyme inhibition assay method, in which the assay mixture contained 40 μM (Km app) or 1 mM ATP, 8 μM Omnia® Y12 peptide (Catalog #IVGN KPZ3121C; Invitrogen Corporation, Carlsbad, Calif.) and 15 nM JAK1 in a total volume of 20 μL. JAK1 was purchased from Invitrogen Corporation, Carlsbad, Calif. (catalog #IVGN PV4775).

JAK2 = biological target: T3, JAK2 (Homo sapiens, UniProt O60674); experiment: JAK2 Inhibition Assay (Omnia kinase fluorescence peptide substrate); conditions: averaged IC50 ranges; 25 μM (Km app) or 1 mM ATP, 5 nM JAK2
T3 construct: purchased Invitrogen Corporation, Carlsbad, Calif; IVGN PV4288
T3 sequence (O60674 whole entry): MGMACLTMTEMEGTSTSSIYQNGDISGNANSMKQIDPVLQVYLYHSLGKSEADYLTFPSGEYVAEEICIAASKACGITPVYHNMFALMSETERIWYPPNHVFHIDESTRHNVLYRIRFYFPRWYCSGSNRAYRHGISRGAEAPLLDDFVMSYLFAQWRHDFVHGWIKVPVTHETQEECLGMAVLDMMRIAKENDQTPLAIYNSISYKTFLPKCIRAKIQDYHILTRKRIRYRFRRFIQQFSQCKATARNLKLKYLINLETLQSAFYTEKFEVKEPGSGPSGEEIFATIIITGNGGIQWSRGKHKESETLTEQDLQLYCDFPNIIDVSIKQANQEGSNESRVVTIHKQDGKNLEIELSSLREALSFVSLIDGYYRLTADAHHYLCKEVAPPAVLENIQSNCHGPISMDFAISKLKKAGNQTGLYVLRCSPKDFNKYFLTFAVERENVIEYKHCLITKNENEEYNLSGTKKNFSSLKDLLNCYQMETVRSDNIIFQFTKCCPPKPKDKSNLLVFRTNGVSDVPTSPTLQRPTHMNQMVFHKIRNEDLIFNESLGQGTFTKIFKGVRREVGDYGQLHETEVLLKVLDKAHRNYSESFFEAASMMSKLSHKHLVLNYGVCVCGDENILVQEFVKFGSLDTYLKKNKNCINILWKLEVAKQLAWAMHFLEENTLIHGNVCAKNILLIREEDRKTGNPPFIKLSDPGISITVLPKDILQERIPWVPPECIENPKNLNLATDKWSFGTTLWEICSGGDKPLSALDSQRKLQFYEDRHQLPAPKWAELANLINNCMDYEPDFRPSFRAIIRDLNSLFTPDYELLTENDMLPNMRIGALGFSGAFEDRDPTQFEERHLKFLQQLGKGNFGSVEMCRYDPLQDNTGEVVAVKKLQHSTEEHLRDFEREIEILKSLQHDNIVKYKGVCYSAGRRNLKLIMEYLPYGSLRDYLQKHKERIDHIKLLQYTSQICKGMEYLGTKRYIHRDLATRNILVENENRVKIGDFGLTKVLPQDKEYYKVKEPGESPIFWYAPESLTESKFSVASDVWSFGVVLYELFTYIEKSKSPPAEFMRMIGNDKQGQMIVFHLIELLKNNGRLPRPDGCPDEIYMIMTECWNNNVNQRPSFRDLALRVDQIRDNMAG
From the text: as §1, §2, §3, §4, §5
(§6) Compounds of Formula I were screened for their ability to inhibit JAK2 using the general enzyme inhibition assay method, in which the assay mixture contained 25 μM (Km app) or 1 mM ATP, 10 μM Omnia® Y7 peptide (Catalog #IVGN KNZ3071C, Invitrogen Corporation, Carlsbad, Calif.) and 5 nM JAK2 in a total volume of 20 μL. JAK2 was purchased from Invitrogen Corporation, Carlsbad, Calif. (catalog #IVGN PV4288).

JAK3 = biological target: T4, JAK3 (Homo sapiens, UniProt P52333); experiment: JAK3 Inhibition Assay (Omnia kinase fluorescence peptide substrate); conditions: averaged IC50 ranges; 10 μM (Km app) or 1 mM ATP, 2.5 nM JAK3
T4 construct: purchased Invitrogen Corporation, Carlsbad, Calif; IVGN PV4080
T4 sequence (P52333 1-1124): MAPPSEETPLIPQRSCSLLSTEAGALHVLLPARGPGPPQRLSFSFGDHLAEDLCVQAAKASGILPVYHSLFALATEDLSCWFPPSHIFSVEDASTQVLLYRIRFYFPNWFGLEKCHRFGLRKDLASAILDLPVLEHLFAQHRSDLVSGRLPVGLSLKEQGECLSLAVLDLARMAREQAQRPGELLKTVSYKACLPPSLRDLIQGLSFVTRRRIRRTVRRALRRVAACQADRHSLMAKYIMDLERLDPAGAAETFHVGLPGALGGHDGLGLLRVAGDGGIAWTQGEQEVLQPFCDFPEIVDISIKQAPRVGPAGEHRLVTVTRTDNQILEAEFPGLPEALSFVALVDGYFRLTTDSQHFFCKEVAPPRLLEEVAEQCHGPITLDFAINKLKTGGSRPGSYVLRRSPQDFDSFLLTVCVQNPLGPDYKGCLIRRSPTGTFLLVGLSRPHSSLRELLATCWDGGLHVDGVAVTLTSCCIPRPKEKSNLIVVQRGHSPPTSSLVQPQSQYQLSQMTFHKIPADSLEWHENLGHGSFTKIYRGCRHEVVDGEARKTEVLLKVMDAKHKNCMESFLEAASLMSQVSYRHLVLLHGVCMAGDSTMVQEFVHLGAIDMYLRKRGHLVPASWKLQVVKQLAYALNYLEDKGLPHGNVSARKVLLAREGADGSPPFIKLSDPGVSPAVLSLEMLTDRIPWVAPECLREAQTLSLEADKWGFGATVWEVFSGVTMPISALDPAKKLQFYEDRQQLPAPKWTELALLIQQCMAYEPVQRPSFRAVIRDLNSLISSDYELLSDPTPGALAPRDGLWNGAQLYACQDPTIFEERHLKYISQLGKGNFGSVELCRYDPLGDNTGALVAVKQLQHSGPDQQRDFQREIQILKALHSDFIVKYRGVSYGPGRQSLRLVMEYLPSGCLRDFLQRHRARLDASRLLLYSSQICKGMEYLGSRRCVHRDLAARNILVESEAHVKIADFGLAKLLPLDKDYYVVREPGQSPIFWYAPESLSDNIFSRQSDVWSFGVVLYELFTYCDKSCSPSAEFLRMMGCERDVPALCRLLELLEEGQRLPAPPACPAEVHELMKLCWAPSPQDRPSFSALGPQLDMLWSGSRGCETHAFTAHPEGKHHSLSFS
From the text: as §1, §2, §3, §4, §5
as §6, with “JAK3” for “JAK2”, “10” for “25”, “2.5” for “5”, “PV4080).” for “PV4288).”

IC50 (Human Tyk2 kinase domain) [nM]	IC50 (JAK1) [nM]	IC50 (JAK2) [nM]	IC50 (JAK3) [nM]	Structure (SMILES)
10 to 100	100 to 1000	100 to 1000	100 to 1000	Cn1cc(-c2cc3nccn3c(-c3cnn(C4(CCO)CN(S(=O)(=O)C(F)(F)F)C4)c3)n2)cn1 [Example 3, 2-(3-(4-(7-(1-methyl-1H-pyrazol-4-yl)imidazo[1,2-c]pyrimidin-5-yl)-1H-pyrazol-1-yl)-1-((trifluoromethyl)sulfonyl)azetidin-3-yl)ethanol]
100 to 1000	> 1000	> 1000	> 1000	Cn1cc(-c2cc3nccn3c(-c3cnn(C(CO)C4CC4)c3)n2)cn1 (stereo not drawn) [Example 6, 2-cyclopropyl-2-(4-(7-(1-methyl-1H-pyrazol-4-yl)imidazo[1,2-c]pyrimidin-5-yl)-1H-pyrazol-1-yl)ethanol]
< 10	10 to 100	10 to 100	100 to 1000	COCCn1cc(-c2cc3nccn3c(-c3cnn(C4(CCF)CN(S(=O)(=O)C(F)(F)F)C4)c3)n2)cn1 [Example 89, 5-(1-(3-(2-fluoroethyl)-1-((trifluoromethyl)sulfonyl)azetidin-3-yl)-1H-pyrazol-4-yl)-7-(1-(2-methoxyethyl)-1H-pyrazol-4-yl)imidazo[1,2-c]pyrimidine]
10 to 100	100 to 1000	100 to 1000	100 to 1000	Cn1ccc(-c2cc3nccn3c(-c3cnn(C4(CCF)CN(S(=O)(=O)C(F)(F)F)C4)c3)n2)cc1=O [Example 79, 4-(5-(1-(3-(2-fluoroethyl)-1-((trifluoromethyl)sulfonyl)azetidin-3-yl)-1H-pyrazol-4-yl)imidazo[1,2-c]pyrimidin-7-yl)-1-methylpyridin-2(1H)-one]
100 to 1000	100 to 1000	100 to 1000	100 to 1000	Cn1cc(-c2cc3nccn3c(-c3cnn(C4(CCF)CN(S(=O)(=O)CC5CC5)C4)c3)n2)cn1 [Example 87, 5-(1-(1-((cyclopropylmethyl)sulfonyl)-3-(2-fluoroethyl)azetidin-3-yl)-1H-pyrazol-4-yl)-7-(1-methyl-1H-pyrazol-4-yl)imidazo[1,2-c]pyrimidine]
< 10	10 to 100	10 to 100	10 to 100	Cn1cc(-c2cc3nccn3c(-c3ccn([C@H](CCF)[C@H]4CC4(F)F)c3)n2)cn1 [Example 23, 5-(1-((R)-1-((R)-2,2-difluorocyclopropyl)-3-fluoropropyl)-1H-pyrrol-3-yl)-7-(1-methyl-1H-pyrazol-4-yl)imidazo[1,2-c]pyrimidine]

Second part, the compound before the results:

Structure (SMILES)	IC50 (Human Tyk2 kinase domain) [nM]	IC50 (JAK1) [nM]	IC50 (JAK2) [nM]	IC50 (JAK3) [nM]
Cn1cc(-c2cc3nccn3c(-c3ccn([C@@H](C[C@H](O)C(F)(F)F)C4CC4)c3)n2)cn1 [Example 102, (2S,4S)-4-cyclopropyl-1,1,1-trifluoro-4-(3-(7-(1-methyl-1H-pyrazol-4-yl)imidazo[1,2-c]pyrimidin-5-yl)-1H-pyrrol-1-yl)butan-2-ol]	10 to 100	100 to 1000	100 to 1000	> 1000
Cn1cc(-c2cc3nccn3c(-c3ccn([C@H](CCF)[C@@H]4CC4(F)F)c3)n2)cn1 [Example 28, 5-(1-((R)-1-((S)-2,2-difluorocyclopropyl)-3-fluoropropyl)-1H-pyrrol-3-yl)-7-(1-methyl-1H-pyrazol-4-yl)imidazo[1,2-c]pyrimidine]	10 to 100	100 to 1000	10 to 100	100 to 1000
Cc1nn(C)cc1S(=O)(=O)N1CC(CCF)(n2cc(-c3nc(-c4cnn(C)c4)cc4nccn34)cn2)C1 [Example 85, 5-(1-(1-((1,3-dimethyl-1H-pyrazol-4-yl)sulfonyl)-3-(2-fluoroethyl)azetidin-3-yl)-1H-pyrazol-4-yl)-7-(1-methyl-1H-pyrazol-4-yl)imidazo[1,2-c]pyrimidine]	100 to 1000	100 to 1000	100 to 1000	> 1000
Cn1cc(-c2cc3nccn3c(-c3cnn(C(C4CC4)C4CC4)c3)n2)cn1 [Example 9, 5-(1-(Dicyclopropylmethyl)-1H-pyrazol-4-yl)-7-(1-methyl-1H-pyrazol-4-yl)imidazo[1,2-c]pyrimidine]	10 to 100	> 1000	100 to 1000	100 to 1000
Cn1cc(-c2cc3nccn3c(-c3cnn(C4CCCC4)c3)n2)cn1 [Example 34, 5-(1-cyclopentyl-1H-pyrazol-4-yl)-7-(1-methyl-1H-pyrazol-4-yl)imidazo[1,2-c]pyrimidine]	100 to 1000	> 1000	100 to 1000	> 1000
CCCC(C1CC1)n1cc(-c2nc(-c3cnn(C)c3)cc3nccn23)cn1 (stereo not drawn) [Example 15, 5-(1-(1-Cyclopropylbutyl)-1H-pyrazol-4-yl)-7-(1-methyl-1H-pyrazol-4-yl)imidazo[1,2-c]pyrimidine]	10 to 100	100 to 1000	10 to 100	100 to 1000
